Results on three compounds are retold here after patent US20210214607A1, “LONG WAVELENGTH EMITTING CHEMILUMINESCENT PROBES” (NEMIS Technologies AG, priority 2018, published 2021).

A short description of data set [1]: Chemiluminescence upon reaction with H2O2 in PBS. It counts as physicochemical. As to conditions: compound 100 μM, H2O2 1 mM, PBS (pH 7.4) (10% DMSO). The protocol:
(§1) All reactions were carried out at room temperature unless stated otherwise. Chemicals and solvents were either A.R. grade or purified by standard techniques. Thin layer chromatography (TLC): silica gel plates Merck 60 F254: compounds were visualized by irradiation with UV light. Column chromatography (FC): silica gel Merck 60 (particle size 0.040-0.063 mm), eluent given in parentheses. Reverse-phase high pressure liquid chromatography (RP-HPLC): C18 5u, 250×4.6 mm, eluent given in parentheses. Preparative RP-HPLC: C18 5u, 250×21 mm, eluent given in parentheses. Fluorescence and chemiluminescence were recorded on Molecular Devices Spectramax i3x.
The respective chemiluminescent kinetic profile is shown in FIG. 1 and the total light emission with [1 mM] or without the presence of H2O2 is shown in FIG. 2.
The chemiluminescent kinetic profile is shown in FIG. 5 and the total light emission with and without the presence of H2O2 is shown in FIG. 6.

A short description of data set [2]: Chemiluminescent emission spectrum in PBS. The class given is physicochemical. As to conditions: compound 100 μM, PBS (pH 7.4) (10% DMSO). The protocol: as §1

Regarding `COC1(c2ccc(/C=C/c3cc[n+](CCCCCC(=O)O)cc3)c(OCc3ccc(B4OC(C)(C)C(C)(C)O4)cc3)c2Cl)OOC12C1CC3CC(C1)CC2C3` (stereo not drawn) [Ia1], the emission maximum in data set [1] (37° C.) stood at 660 nm.
In turn, `COC1(c2ccc(/C=C/c3cccc[n+]3CCCCCC(=O)O)c(OCc3ccc(B4OC(C)(C)C(C)(C)O4)cc3)c2Cl)OOC12C1CC3CC(C1)CC2C3` (stereo not drawn) [Ia3] returned an emission maximum in data set [1] (26° C.) of 650 nm.
As for `COC1(c2ccc(/C=C/c3cc[n+]([O-])cc3)c(O)c2Cl)OOC12C1CC3CC(C1)CC2C3` (stereo not drawn) [Ia2], in data set [2], the intensity of emission result is “visible by the naked eye”.
